Here are results for 4 compounds from patent US20260158070A1, “COMPOSITIONS AND METHODS FOR THE TREATMENT AND DIAGNOSIS OF CANCERS ASSOCIATED WITH SURFACE K-RAS” (UNIVERSITY OF MARYLAND, BALTIMORE, priority 2023, published 2026).

Data set [1] has as its system Panc-1 (pancreatic carcinoma carrying a K-RAS G12D mutation). Nature of the data set: Fab-ZAP assay (saporin-linked secondary antibody, XTT). The class given is cell-based, human. The settings on record: 4.5 nM FabZAP, 5 days. An excerpt:
(§1) Saporin is a 30 kDa ribosome-inhibitor which is unable to cross a cell membrane unaided (except at extremely high concentrations). However, when it is conjugated to an internalizing antibody, as previously described (DOI: 10.3390/toxins14030184), it can be used to kill target cells precisely and specifically with little to no off-target toxicity (See, for example, Lund et. al., mAbs, 6(4), 1038-1050, doi.org/10.4161/mabs.28207). […]
(§2) We specifically utilized Panc-1 (pancreatic carcinoma carrying a K-RAS G12D mutation), Capan-2 (pancreatic carcinoma carrying a K-RAS G12V mutation), AsPC-1 (pancreatic cell line carrying a K-RAS G12D mutation), LS180 (colon cancer cell line carrying a K-RAS G12D mutation), SW480 (colon cancer cell lines carrying a K-RAS G12V mutation), Capan-2 (pancreatic cancer cell line carrying a K-RAS G12V mutation), and two lung cancer cell lines (SK-LU-1 carrying a K-RAS G12D mutation and NCI-H2444 carrying a K-RAS G12V mutation). […] After 5 days incubation at 37 C in a 5% CO2 incubator, the percentage of viable cells compared to control wells with 4.5 nM FabZAP alone was determined using XTT assay according to the described protocol (Advanced Targeting Systems Inc cytotoxic assay protocol). […] Plates were then incubated at 37° C. for a minimum of 30 mins and absorbance was read at 450 nm in a plate reader. […]
(Tetrazolium dyes change colour on reduction, which living cells bring about.)

For a further data set, the system named is tumor cell. Nature of the data set: Tumor cell killing by saporin alone without targeting antibodies (FIG. 3). The class given is cell-based. The method, then: FIG. 3 is a graphical representation of tumor cell killing, defined as % of cells alive compared to untreated control cultures with various concentrations of saporin alone without targeting antibodies. Representative of 3 replicates per group. Arrow points to 4.5 nM saporin. This 4.5 nM concentration, conjugated to the secondary antibody, is utilized in the antibody-drug conjugate (ADC) assays described in Example 3.
as §2

The subject of another data set is BXPC3 K-Ras^WT. In words: Fab-ZAP assay (saporin-linked secondary antibody, XTT). Type of data set: cell-based. The settings on record: 4.5 nM FabZAP, 5 days.
For data set [2], the system named is AsPC-1 (pancreatic cell line carrying a K-RAS G12D mutation). The description is as above. Type of data set: cell-based. The settings on record: 4.5 nM FabZAP, 5 days.
Text: as §1, §2

Data set [3] relates to MiaPaCa-2, a K-Ras G12C expressing pancreatic cancer cell line. The description is as above. Type of data set: cell-based. The settings on record: 4.5 nM FabZAP, 5 days.
The test system of data set [4] is human tumor cell line PANC-1. Nature of the data set: Cell line-derived xenograft model of pancreatic cancer, in vivo ADC experiment. Details: species or system Balb/c nude mice. To be noted: 10 mg/kg i.v. QW × 2 weeks; gemcitabine 50 mg/kg i.p. BIW × 2 weeks. The procedure: DXd is a protease cleavable linker attached to a derivative of exatecan that acts as topoisomerase I inhibitor. DXd targeted to cancer cells by antibodies as an ADC has been used by FDA-approved […] is a conjugation of anti-Her-2 antibody and deruxtecan. DXd was conjugated via stochastic maleimide conjugation to interchain cysteines of the antibodies. The antibodies were first reduced using 10× molar equivalents of 10 mM TCEP at 37° C. for 90 minutes with shaking. The reduced antibodies were then conjugated with 10× molar equivalents of 10 mM DXd at room temperature for 2 hours. Conjugated antibodies were evaluated for the drug to antibody ratio (DAR) by reducing 10 μg of the crude conjugate with DTT at 37° C. for 30 minutes. The final DAR for the conjugated antibodies was 8. The multimeric state of the conjugated antibodies was evaluated by size exclusion chromatography and confirmed to be monomeric. Conjugated antibodies were purified from unconjugated DXd by dialysis against PBS, pH 5.6 with a 10K molecular-weight cut-off (MWCO) membrane for 48 hours. Next, we utilized a cell line-derived xenograft model of pancreatic cancer, where the human tumor cell line PANC-1 was implanted into Balb/c nude mice. The nude mouse is a naturally mutated mouse that lacks a thymus and hair (nude). […]

Data set [5] concerns PANC-1 cells. In words: Human Fab-ZAP assay with MRTX1133 treatment (XTT). Type of data set: cell-based. The settings on record: 10 nM MRTX1133, 4.5 nM FabZAP, 5 days. An excerpt: In this example, we used the commercially available human Fab-ZAP assay (Advanced Targeting Systems Inc.), similar to Example 3, to test whether increasing surface K-Ras availability with MRTX1133 would potentiate killing with surface K-Ras targeted ADCs. For the experiments described below, we utilized the Fab-ZAP human kit [IT-51, KIT-51](atsbio.com/products/it51/), consisting of a chemical conjugate of goat […] monovalent antibody and the ribosome-inactivating protein, saporin. The antibodies used in this kit are affinity-purified polyclonal antibodies against both the heavy and light chain of […].
In one experiment, we tested whether increasing surface K-Ras availability with the small molecule inhibitor MRTX1133 would potentiate killing with surface K-Ras targeted ADCs. […] After 5 days incubation at 37 C in a 5% CO2 incubator, the percentage of viable cells compared to control wells with 4.5 nM FabZAP alone was determined using XTT assay according to the described protocol (Advanced Targeting Systems Inc cytotoxic assay protocol). […] Plates were then incubated at 37 C for at least 30 mins, and absorbance was read at 450 nm in a plate reader. This assay relies on detecting the number of viable cells remaining on the day of development as measured via cell metabolism of a colorimetric molecule within the developing reagents. […]

The test system of data set [6] is Panc-1 (K-Ras G12D mutant). Nature of the data set: Growth and viability of pancreatic cancer cells cultured with R11.1.6 constructs (cell count, Trypan blue). Type of data set: cell-based, human. The settings on record: Panc-1, 20,000 cells/well, counted after 5 days of culture. The procedure:
We next evaluated growth as well as viability of two pancreatic cancer cell lines driven by either G12D (Panc-1) or G12C (MiaPaca-2) mutant K-Ras in vitro. We plated 20,000 cells/well in Dulbecco's modified Eagles media (DMEM) with 10% fetal bovine serum (FBS) in a flat bottom 96 well plate and counted cells after 5 days of culture. Viability of cells were calculated based on Trypan blue dye exclusion method, where dead cells were blue due to uptake of the viability dye and live cells were not stained. Viability was measured by using Countess II FL cell viability and cell counter instrument by Invitrogen (ThermoFisher USA).
Further evaluation of growth inhibition was performed with control Sulfolobus solfataricus-derived proteins of similar molecular weight. […] We started with 200,000 cells in a 96 well V-bottom plate and used BD phosflow buffer set III (BD biosciences, catalog number 558050) to stabilize and optimize the phosphor moiety. Next, we stained the cells with anti-phospho-Akt (ser473, Clone D9E) PE conjugated (Cell Signaling Technologies, Catalog number 5315S) at a concentration of 0.125 ug/100 ul or anti-phosho-ERK1/2, PE conjugated (ThermoFisher USA catalog number 12-9109-42) at a concentration of 0.125 ug/100 ul. Cells were washed in FACS staining buffer and run in a LSR Fortessa II flow cytometer (BD Biosciences, USA). […]

Data set [7] relates to PANC-1 cells. In words: Surface K-Ras availability after drug treatment (antibody 1 staining, MFI fold change). Type of data set: cell-based, human.
Protocol: For 5-FU treatment, 100,000 PANC-1 cells were seeded into 24 well replicate plates. Cells were allowed to grow for 24 hours before 10 uM of 5-FU was added to the culture media. At 0-, 72-, and 120-hours cells were dislodged by using TryPLE express and resuspended in buffer containing PBS pH 7.2, 5% FCS. Cells were stained with human K-Ras antibody 1. All staining was performed at 10 μg/ml of antibody concentration and a volume of 100ul for 30 minutes on ice in V-bottom 96 well plates. Surface K-Ras staining was quantitated by measuring the MFI of cells mock treated or treated with 5-FU. The fold change was calculated by normalizing to the cells stained with isotype control.

For the compound Saporin, the “cell-specific killing (% of cells alive)” value (in [1]; with BXPC3 K-Ras^WT; in [2]; in data set [3]) was “showed killing” each time. Besides, the “toxicity of saporin without a targeting agent” value with tumor cell (4.5 nM concentration used in the ADC assay) is given as “no toxicity is evident at the 4.5 nM concentration”. In the data set with tumor cell (without targeting antibodies), the “concentration of saporin alone causing cell death” value was at least 100 nM.

As for `Nc1ccn([C@@H]2O[C@H](CO)[C@@H](O)C2(F)F)c(=O)n1` [gemcitabine, Gemcitabine], in [4], the body weight entry is “demonstrated distress based on weight loss” and the “tumor growth (tumor volume)” value is reported as “slowed tumor growth over either ADC or antibody treatment”.

Turning to `C#Cc1c(F)ccc2cc(O)cc(-c3ncc4c(N5CC6CCC(C5)N6)nc(OC[C@@]56CCCN5C[C@H](F)C6)nc4c3F)c12` [MRTX1133], the “cell killing (% alive)” value in the data set on PANC-1 cells [5] is listed as “able to kill cells”. Moreover, the growth and viability entry in [6] was “R11.1.6-mediated inhibition of Panc-1 growth and viability was like the G12D inhibitor MRTX1133”. Moreover, in the data set with PANC-1 cells [7] (10 nM, 0, 72 and 120 hours), the “availability of surface K-Ras (MFI fold change)” value is “increased the availability of surface K-Ras on PANC-1 cells”.

Turning to `O=c1[nH]cc(F)c(=O)[nH]1` [5-FU, fluorouracil], the “availability of surface K-Ras (MFI fold change)” value with PANC-1 cells [7] (10 uM, 0, 72 and 120 hours) was “increased the availability of surface K-Ras in Panc-1 cells”.
